The nature of the data set: Apparent solubility test (USP <1236>). The following applies: for solubility: 20 °C, thermodynamic from solid; for apparent solubility, USP <1236> term: other solvents (water, pH 1.2 to 12.0 buffers). On the procedure: Then, 200 μL of each solvent was added and stirred at 400 rpm. The temperature of the sample was maintained at 20 ± 2 °C. After shaking for 30 s every 5 min, 200 μL of each solvent was added until no particles of the API were visible. The apparent solubility of the two main components was estimated through the point at which all of the API dissolved and became clear.

Turning to `CCOc1ccc(Cc2cc([C@@H]3O[C@H](CO)[C@@H](O)[C@H](O)[C@H]3O)ccc2Cl)cc1` [Dapagliflozin, (1S)-1,5-Anhydro-1-C-[4-chloro-3-[(4-ethoxyphenyl)methyl]phenyl]-D-glucitol (S)-propane-1,2-diol (1:1) monohydrate], the “apparent solubility, USP <1236> term” value is on record as “very slightly soluble”. The solubility (acetonitrile, organic solvent or mixture) lay within 33 to 100 mg/mL. In addition, the solubility (buffer solution, pH 3, aqueous buffer) lay in the range of 0.1 to 1 mg/mL. In addition, the solubility (buffer solution, pH 4, aqueous buffer) is 0.1 to 1 mg/mL. Further, the solubility (buffer solution, pH 5, aqueous buffer) lay in the range of 0.1 to 1 mg/mL. Further, the solubility (buffer solution, pH 6, aqueous buffer) was in the range of 0.1 to 1 mg/mL. In addition, the solubility (buffer solution, pH 6.8, aqueous buffer) lay in the range of 0.1 to 1 mg/mL. Also, the solubility (buffer solution, pH 7, aqueous buffer) lay in the range of 0.1 to 1 mg/mL. Under “buffer solution, pH 8, aqueous buffer”, the solubility is 0.1 to 1 mg/mL. The solubility (buffer solution, pH 9, aqueous buffer) fell in the range of 0.1 to 1 mg/mL. Further, where the note is “buffer solution, pH 10, aqueous buffer”, the solubility lay in the range of 0.1 to 1 mg/mL. Also, the solubility (buffer solution, pH 11, aqueous buffer) lay within 0.1 to 1 mg/mL. Moreover, for the setting “deionized water, water”, the solubility was in the range of 0.1 to 1 mg/mL. Where the note is “ethanol, organic solvent or mixture”, the solubility lay in the range of 33 to 100 mg/mL. Under “methanol, organic solvent or mixture”, the solubility was in the range of 100 to 1000 mg/mL. Further, the solubility (pH 1.2 buffer solution, pH 1.2, aqueous buffer) lay within 0.1 to 1 mg/mL. Also, the solubility (pH 2.0 buffer solution, pH 2, aqueous buffer) fell in the range of 0.1 to 1 mg/mL. For the same compound, the solubility (pH 12.0 buffer solution, pH 12, aqueous buffer) lay in the range of 0.1 to 1 mg/mL.
As for `N[C@@H](CC(=O)N1CCn2c(nnc2C(F)(F)F)C1)Cc1cc(F)c(F)cc1F.O.O=P(O)(O)O` [Sitagliptin, (R)-3-Amino-1-(3-(trifluoromethyl)-5,6-dihydro-[1,2,4]triazolo[4,3-a]pyrazin-7(8H)-yl)-4-(2,4,5-trifluorophenyl)butan-1-one phosphate monohydrate], the “apparent solubility, USP <1236> term” value is “soluble”. Besides, the solubility (organic solvent or mixture) is less than 0.1 mg/mL. Further, the solubility (pH 1.2, aqueous buffer) fell in the range of 1 to 10 mg/mL. The solubility (pH 2, aqueous buffer) lay in the range of 1 to 10 mg/mL. In addition, the solubility (pH 3, aqueous buffer) is 1 to 10 mg/mL. The solubility (pH 4, aqueous buffer) lay in the range of 1 to 10 mg/mL. Besides, the solubility (pH 5, aqueous buffer) lay within 1 to 10 mg/mL. For the same compound, the solubility (pH 6, aqueous buffer) is 1 to 10 mg/mL. Also, the solubility (pH 6.8, aqueous buffer) was 1 to 10 mg/mL. Moreover, the solubility (pH 7, aqueous buffer) lay in the range of 1 to 10 mg/mL. Besides, under “pH 8, aqueous buffer”, the solubility lay within 1 to 10 mg/mL. The solubility (pH 9, aqueous buffer) fell in the range of 1 to 10 mg/mL. In addition, where the note is “pH 10, aqueous buffer”, the solubility is 0.1 to 1 mg/mL. Moreover, for the setting “pH 11, aqueous buffer”, the solubility is 1 to 10 mg/mL. Also, the solubility (pH 12, aqueous buffer) fell in the range of 1 to 10 mg/mL. Further, the solubility (water) is 1 to 10 mg/mL.

The values are drawn from publication PMC10141516 (Pharmaceutics, 2023).
